By melting point is commonly meant the temperature of the solid-liquid transition.

In the case of `CCOC(=O)c1cc(C(=O)c2ccc(C)cc2)n2c1ccc1cc(C)ccc12`, the melting point lay within 155 to 156 °C.

In turn, `CCOC(=O)c1cc(C(=O)c2ccccc2)n2c1ccc1cc(C)ccc12` had a melting point of 139 to 140 °C.

The molecule `CCOC(=O)c1cc(C(=O)c2ccc(F)cc2)n2c1ccc1cc(C)ccc12` displayed a melting point of 163 to 164 °C.

For the molecule `CCOC(=O)c1cc(C(=O)c2ccccc2[N+](=O)[O-])n2c1ccc1cc(C)ccc12` [Compound 4d, Ethyl 7-methyl-1-(2-nitrobenzoyl)pyrrolo[1,2-a]quinoline-3-carboxylate], the melting point was in the range of 174 to 175 °C.

`CCOC(=O)c1cc(C(=O)c2ccc(Br)cc2)n2c1ccc1cc(C)ccc12` [Compound 4e, Ethyl 1-(4-bromobenzoyl)-7-methylpyrrolo[1,2-a]quinoline-3-carboxylate] registered a melting point of 180 to 181 °C.

Consider `CCOC(=O)c1cc(C(=O)c2cc(C(F)(F)F)cc(C(F)(F)F)c2)n2c1ccc1cc(C)ccc12` [Compound 4f, Ethyl 1-(3,5-bis(trifluoromethyl)benzoyl)-7-methylpyrrolo[1,2-a]quinoline-3-carboxylate], for which the melting point fell in the range of 223 to 224 °C.
